Earlier results, collected in patent publication US8802627B2, “Fusion protein composed of matrix metalloproteinase-2 inhibitor peptide derived from amyloid-B precursor protein and tissue inhibitor of metalloproteinase-2” (Oriental Yeast Co., Ltd., priority 2008, dated 2014).

Key:
MMP-9 = MMP-9 (Homo sapiens, UniProt P14780); details: prior art literature, J. Biol. Chem. 278, 14020-14028, 2003; read-out: reported IC50 upon MMP-9
MMP-2 = target: T1, MMP-2 (Homo sapiens, UniProt P08253); details: prior art literature, J. Biol. Chem. 278, 14020-14028, 2003; read-out: reported IC50 upon MMP-2
T1 construct: which now consists of 551 amino acid residues is designated active MMP-2
T1 sequence (P08253 110-660): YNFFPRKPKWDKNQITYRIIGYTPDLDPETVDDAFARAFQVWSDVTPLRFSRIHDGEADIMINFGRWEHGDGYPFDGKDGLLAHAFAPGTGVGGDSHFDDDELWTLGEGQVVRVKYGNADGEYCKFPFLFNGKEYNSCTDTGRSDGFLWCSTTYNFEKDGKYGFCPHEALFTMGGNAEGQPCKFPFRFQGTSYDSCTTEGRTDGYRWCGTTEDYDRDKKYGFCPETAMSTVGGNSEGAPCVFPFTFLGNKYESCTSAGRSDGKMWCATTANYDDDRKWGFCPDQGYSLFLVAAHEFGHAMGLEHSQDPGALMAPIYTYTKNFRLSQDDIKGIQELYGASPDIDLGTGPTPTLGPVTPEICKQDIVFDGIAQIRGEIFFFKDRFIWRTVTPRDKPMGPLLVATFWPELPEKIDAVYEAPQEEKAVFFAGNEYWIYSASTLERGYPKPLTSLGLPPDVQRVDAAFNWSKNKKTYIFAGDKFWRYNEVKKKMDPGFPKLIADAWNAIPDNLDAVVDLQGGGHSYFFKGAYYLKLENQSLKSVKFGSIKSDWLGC

MMP-7 = target: T2, MMP-7 (Homo sapiens, UniProt P09237); details: prior art literature, J. Biol. Chem. 278, 14020-14028, 2003; read-out: reported IC50 upon MMP-7
T2 sequence (P09237 95-267): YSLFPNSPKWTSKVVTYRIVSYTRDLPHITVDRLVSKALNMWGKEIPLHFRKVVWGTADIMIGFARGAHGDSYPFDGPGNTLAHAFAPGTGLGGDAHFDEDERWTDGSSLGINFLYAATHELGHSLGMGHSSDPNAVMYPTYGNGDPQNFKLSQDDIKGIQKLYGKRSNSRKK

MT1-MMP catalytic domain = MT1-MMP catalytic domain (Homo sapiens, UniProt P50281); details: prior art literature, J. Biol. Chem. 278, 14020-14028, 2003; read-out: reported IC50 upon MT1-MMP catalytic domain

Chain of MMP-9 (P14780 94-707): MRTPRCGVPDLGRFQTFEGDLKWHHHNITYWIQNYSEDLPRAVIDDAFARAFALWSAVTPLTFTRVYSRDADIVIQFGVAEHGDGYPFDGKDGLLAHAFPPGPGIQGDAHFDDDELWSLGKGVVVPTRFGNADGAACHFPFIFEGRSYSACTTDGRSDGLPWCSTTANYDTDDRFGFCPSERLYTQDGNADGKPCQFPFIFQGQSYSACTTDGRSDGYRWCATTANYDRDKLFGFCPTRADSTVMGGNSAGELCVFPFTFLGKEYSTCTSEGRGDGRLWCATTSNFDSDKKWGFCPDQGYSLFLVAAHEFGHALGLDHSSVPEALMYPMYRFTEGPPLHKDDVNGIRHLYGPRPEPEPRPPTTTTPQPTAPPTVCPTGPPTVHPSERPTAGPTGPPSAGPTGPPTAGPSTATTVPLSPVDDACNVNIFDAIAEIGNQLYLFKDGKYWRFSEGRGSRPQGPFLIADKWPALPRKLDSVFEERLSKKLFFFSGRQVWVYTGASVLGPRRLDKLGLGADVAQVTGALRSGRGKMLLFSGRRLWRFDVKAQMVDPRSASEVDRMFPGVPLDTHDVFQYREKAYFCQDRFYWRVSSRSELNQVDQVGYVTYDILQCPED

IC50 (MMP-9): 20 µM
IC50 (MMP-2): 0.03 µM
IC50 (MMP-7): 15 µM
IC50 (MT1-MMP catalytic domain): 2 µM
Sequence: ISYGNDALMP [APP-IP]
